Measurements from patent publication US12686854B2, “Method for enhancing secretory function of mesenchymal stem cells and application thereof” (SHANDONG UNIVERSITY, priority 2020, dated 2026).

Key:
PI3K-AKT pathway = assay: In vitro ovary culture with VCD injury, Western blot of p-AKT and AKT; format: cell-based; conditions: PD4 mouse ovaries, 4 days in vitro culture, VCD 30 μM injury
Experimental: • S1. The concentrated conditioned medium was collected as described in Example 1. • S2. The solution for dissecting ovary containing 10% FBS and 1% penicillin-streptomycin was prepared in L15 medium. • S3. Ovarian culture preparation was performed. The medium of control group, VCD (30 μM) group, VCD+MSC-CM group and VCD+HA/MSC-CM group were prepared, and the embedded culture chamber was placed in 6-well plate containing 1.5 mL medium per well for 2 hours. • S4. The ovaries of postnatal day 4 (PD4) mice were isolated in freshly prepared dissecting solution under stereoscope. The surrounding tissues and ovarian capsule were gently peeled off, which should move quickly and not damage ovarian tissues. • S5. The obtained ovaries were washed three times with dissecting solution and transferred to an operation table as soon as possible. Before the ovaries were placed in the chambers of each group, the ovaries were washed three times with the corresponding medium of each group. After washing, they were placed in the middle of the culture chambers of each group and placed at intervals. The solution was changed on the second day. After 4 days of in vitro culture, the ovarian tissues were collected to extract protein. • S6. The changes of the expression of p-AKT and AKT protein were detected by Western blot.

[1] = system: germ cells in mouse ovaries; assay: In vitro ovary culture with VCD injury, DDX4 immunohistochemical staining of germ cells; format: cell-based; conditions: 8 days in vitro culture

C1CC2OC2CC1C1CO1 (stereo not drawn) [VCD, 4-vinylcyclonhexene diepoxide]
expression level of p-AKT (PI3K-AKT pathway): decreased significantly
ovarian volume ([1]; VCD 30 μM): decreased
number of germ cells (DDX4 staining) ([1]; VCD 30 μM injury): decreased significantly
